Columns and labels:
SD rats [1] = assay: Kidney lesions under HE microscope in rat urolithiasis model (1% ethylene glycol + 2% ammonium chloride); format: in vivo; design: key to Renal tubule dilation lesions / Renal interstitial inflammatory cell infiltration / Calcium oxalate crystal aggregation: No lesion was represented by −; mild lesion was +; lesion was ++; significant lesion was +++; details: potassium sodium hydrogen citrate group
Excerpt: (§1) II. Experimental example of pharmacological activity • 1. Preparation of test samples • (1) High-dose group test sample: the water-extracted, 0-25% ethanol gradient eluent by polyamide column prepared in Preparation Example 5 was concentrated and dried to obtain the active ingredient extract. A solution with a density of about 1.2 g/ml was formulated, and the concentration of the effective substance measured by the pharmacopoeia standard and the absorbance method (using rutin as a standard substance to make a standard curve) is about 130.4 mg/ml. • (2) Medium-dose group test sample: the high-dose group sample was diluted once to obtain the middle-dose group test sample. • (3) Low-dose group test sample: the middle-dose group sample was dilute once to obtain the low-dose group test sample. • (4) Positive control group test sample: potassium sodium hydrogen citrate aqueous solution with a concentration of 100 mg/ml, 3 ml per day, equivalent to 300 mg/d. • 2. Animal experiments • 2.1. Experimental animals and feeding conditions
36 male SD rats of SPF grade, 6-8 weeks old, 200-250 g. • 2.2.3 Model preparation
SD rats were fed adaptively for 7 days, and all groups (except the normal group) were administered 1% ethylene glycol (by drinking water)+2% ammonium chloride (by intragastric administration) 2 ml/rat to establish a model for 28 consecutive days. • 2.2.4 Experimental grouping and processing
36 male SD rats were randomly divided into 6 groups according to body weight, 6 rats in each group. These are normal group, model group, potassium sodium hydrogen citrate group, traditional Chinese medicine extract (low, medium, high) dose group. During the modeling process, 3 ml of the drug was administered by intragastric administration every day, and the drug included the positive control drug and the purified part through the polyamide column. The animals were euthanized after 4 weeks. • 2.2.5 Kidney
The kidney tissues were peeled off in vivo, the kidney on one side was stored in a cryopreservation tube at −80° C. for tissue homogenate to detect Ca2+ concentration, and the kit operation steps were the same as above; the […] kidney on the other side was fixed in formalin solution for tissue sectioning to perform HE staining. • (1) The steps for making paraffin sections were as follows:
(1) fixation, (2) trimming, (3) dehydration, (4) transparency, (5) wax immersion, (6) embedding, (7) slicing, (8) baking slices, (9) preservation: packed in boxes and stored at room temperature. • (2) HE staining steps were as follows:
(1) dewaxing and rehydration, (2) dyeing, (3) dehydration, transparency, mounting,
(4) staining results: the nucleus was blue, the cytoplasm was pink, and the red blood cells were bright red. • 3. Test results • 3.1. Positive test results for calcium oxalate crystals in rat urine
The results consisted of three parts: calcium oxalate crystal aggregation, renal tubule dilation lesions, and chronic renal interstitial inflammatory cell infiltration.

SD rats [2] = assay: Serum CRE and BUN levels of urolithiasis model rats; format: in vivo, rat; details: all groups, 4 weeks
Excerpt: as §1
(§2) 36 male SD rats of SPF grade, 6-8 weeks old, 200-250 g. • 2.2.3 Model preparation […]

SD rats [3] = assay: Ca2+ concentration in serum, urine and kidney tissue of urolithiasis model rats; format: in vivo, rat; details: potassium sodium hydrogen citrate drug group, 300 mg/d
Excerpt: as §1, §2

[4] = 100 mg/ml, 3 ml per day (300 mg/d) intragastric, 4 weeks

For O.O=C([O-])CC(O)(CC(=O)[O-])C(=O)O.O=C([O-])CC(O)(CC(=O)[O-])C(=O)O.O=C([O-])CC(O)(CC(=O)[O-])C(=O)O.O=C([O-])CC(O)(CC(=O)[O-])C(=O)[O-].O=C([O-])CC(O)(CC(=O)[O-])C(=O)[O-].[K+].[K+].[K+].[K+].[K+].[K+].[Na+].[Na+].[Na+].[Na+].[Na+].[Na+] [potassium sodium hydrogen citrate], the “Calcium oxalate crystal aggregation” value (SD rats [1]; [4]) was “++”, the “Renal interstitial inflammatory cell infiltration” value (SD rats [1]; [4]) was “+” and the “Renal tubule dilation lesions” value (SD rats [1]; [4]) was “++”. For the same compound, the “brownish yellow calcium oxalate crystals under the HE microscope, compared with the model group” value (SD rats [1]; 300 mg/d) was “did not decrease significantly”, the “inflammatory cell infiltration in the renal interstitium under the HE microscope” value (SD rats [1]; 300 mg/d) was “occasionally seen” and the “renal tubule dilatation under the HE microscope, compared with the model group” value (SD rats [1]; 300 mg/d) was “improved”. The “BUN levels in serum, order of groups from high to low” value (SD rats [2]) was “model group>low dose treatment group>potassium sodium hydrogen citrate drug group>medium dose treatment group>high dose treatment group>normal group”, the “CRE levels in serum, order of groups from high to low” value (SD rats [2]) was “model group>medium dose treatment group>potassium sodium hydrogen citrate drug group>low dose treatment group>high dose treatment group>normal group” and the “Ca2+ concentration in kidney tissue, difference compared with the model group and the normal group” value (SD rats [3]) was “very significant difference (P<0.01)”. For the same compound, the “Ca2+ concentration in kidney tissue, rank among groups” value (SD rats [3]) was “highest concentration”.
